# Test results reported in patent publication US7998976B2, “Certain chemical entities, compositions and methods” (Cytokinetics, Inc., priority 2008, dated 2011).
# Test system: skeletal sarcomere (skeletal myosin with actin, tropomyosin, and troponin complex)
# Experiment: Screen of ATP hydrolysis rate of myosin with calcium-regulated actin filament (actin/tropomyosin/troponin), PK/LDH/NADH coupled enzyme system
# Type: biochemical
# Details: screen conducted at pCa=6.5; unit not given
# Method: For example, test compounds can be assayed in a highly parallel fashion by using multiwell plates by placing the compounds either individually in wells or testing them in mixtures. Assay components including the target protein complex, coupling enzymes and substrates, and ATP can then be added to the wells and the absorbance or fluorescence of each well of the plate can be measured with a plate reader.
# In some embodiments, the method uses a 384 well plate format and a 25 μL reaction volume. A pyruvate kinase/lactate dehydrogenase coupled enzyme system (Huang T G and Hackney D D. (1994) J Biol Chem 269(23):16493-501) can be used to measure the rate of ATP hydrolysis in each Well. As will be appreciated by those in the art, the assay components are added in buffers and reagents. The incubation periods can be optimized to give adequate detection signals over the background. The assay can be done in real time giving the kinetics of ATP hydrolysis which increases the signal to noise ratio of the assay.
# Actin was purified by first preparing an ether powder of cardiac muscle (Zot H G and Potter J D. (1981) Preparative Biochemistry 11:381-395) as described below. Subsequently, actin was cycled between the filamentous and soluble state through rounds of centrifugation and dialysis (Spudich J A and Watt S. (1971) J. Biol. Chem. 246:4866-4871). It was stored in the filamentous state at 4° C.
# Tropomyosin was extracted from the ether powder and separated from the other proteins based on pH dependent precipitations followed by successive ammonium sulfate cuts at 53% and 65% (Smillie L B. (1981) Methods Enzymol 85 Pt B:234-41). The troponins were isolated as an intact complex of TnC, TnT, and TnI. Ether powder is extracted in a high salt buffer. Successive ammonium sulfate cuts of 30% and 45% were done; the precipitate was solubilized by dialysis into a low salt buffer and then further purified on a DEAE Toyopearl column with a 25-350 mM KCl gradient.
# Just prior to screening, the actin, tropomyosin, and troponin complex are mixed together in the desired ratio (e.g., 7:1:1) to achieve maximal calcium regulation of the actin filament. The screen is conducted at a pCa=6.5. This calcium concentration is in the physiological range during muscle contraction.
# To measure the generation of ADP during the reaction, a pyruvate kinase/lactate dehydrogenase/NADH coupled enzyme system (PK/LDH) is added to the actin. The myosin is kept separately. The plates are read in real time so that kinetic curves are obtained. These compounds are in DMSO and were already spotted onto the bottoms of 384 well plates at 10 to 40 μg/ml final concentration.
# • 1. Obtain ˜1000 g skeletal muscle, such as rabbit skeletal muscle. • 2. Grind twice; extract with 2 L solution A for 15 min while stirring; add 4 L cold H2O, filter through gauze; dilute with cold H2O to ionic strength of 0.04, (about 10-fold); let settle for 3 h; collect precipitate at 7,000 rpm in GSA rotor for 15 min. • 3. Disperse pellet in 220 ml solution B; dialyze overnight against 6 L solution C; slowly add ˜400 ml equal volume cold distilled H2O; stir for 30 min; centrifuge at 10,000 rpm for 10 min in GSA rotor. • 4. Centrifuge supernatant at 19,000 rpm for 1 h. • 5. Dilute supernatant to ionic strength of 0.04 (˜8-fold); let myosin settle overnight; collect about 5-6 L fluffy myosin precipitate by centrifuging at 10,000 rpm for 10 min in GSA rotor. • 6. Resuspend pellet in minimal volume of solution G; dialyze overnight against 2 L solution D; centrifuge at 19,000 rpm for 2 h, in cellulose nitrate tubes; puncture tubes and separate myosin from fat and insoluble pellet. • 7. Dilute supernatant to 5-10 mg/ml and dialyze against solution E extensively, load onto DEAE-sephadex column. • 8. […]
row,Compound,AC1.4 Median
1,"3-(ethylpropyl)-5-ethynylimidazo[5,4-b]pyridin-2-ol",2.366
2,"3-(ethylpropyl)-5-methylimidazo[5,4-b]pyridin-2-ol",43.299
3,"3-(ethylpropyl)-5-vinylimidazo[5,4-b]pyridin-2-ol",3.836
4,"5-(dimethylamino)-3-(ethylpropyl)imidazo[5,4-b]pyridin-2-ol",2.611
5,"C/C=C\c1ccc2nc(O)n(C(CC)CC)c2n1 [5-((1Z)prop-1-enyl)-3-(ethylpropyl)imidazo[5,4-b]pyridin-2-ol]",0.840
6,"CCC(CC)n1c(O)nc2ccc(Br)nc21 [5-bromo-3-(ethylpropyl)imidazo[5,4-b]pyridin-2-ol]",8.050
7,"CCC(CC)n1c(O)nc2ccc(Cl)nc21 [5-chloro-3-(ethylpropyl)imidazo[5,4-b]pyridin-2-ol]",21.134
